Assay results as given in paper PMC10745346, “A Robust and Efficient FRET-Based Assay for Cannabinoid Receptor Ligands Discovery” (Molecules, 2023).
Read-outs that look alike come from different tables or passages of the source.

Legend:
human CB1R = target: T1, human CB1R (Homo sapiens, UniProt P21554); assay: Competition radioligand binding assay, [3H]-CP55940, human CB1R
T1 construct: expressed in transfected cells
Description: CB1R competition binding experiments were carried out by employing cell membranes obtained from a stable CHO-hCB1 cell line. Cell membranes were prepared by washing the cells twice with phosphate buffered saline (PBS) and scraped from the plate in lysis buffer (5 mM Tris-HCl, 2 mM EDTA, pH = 7.4). Cell suspension was homogenized and centrifuged at 1000× g for 10 min at 4 °C. Supernatant was isolated and centrifuged at 48,000× g for 1 h at 4 °C. The membrane’s pellet was suspended in a storage buffer (50 mM Tris-HCl, pH = 7.4). The protein concentration of the cell membrane suspension was 4292 µg/mL.
Radioligand binding assays were performed in a polypropylene 96-well plate containing 20 μg of cell membranes, 1.25 nM [^3H]-CP55940 (101 Ci/mmol, 1 mCi/mL, Perkin Elmer NET1051250UC), and the compounds under study. Non-specific binding was determined in the presence of Surinabant 10 μM. The reaction mixture (Vt: 250 μL/well) was incubated at 30 °C for 60 min, 200 μL was transferred to a GF/B 96-well plate (Millipore, Madrid, Spain) and treated with binding buffer (50 mM Tris-HCl, 5 mM MgCl2, 1 mM EDTA, 0.5% BSA. pH: 7.4); afterward, it was filtered and washed four times with 250 μL wash buffer (50 mM Tris-HCl, 5 mM MgCl2, 1 mM EDTA, 0.5% BSA. pH: 7.4), before its measurement in a microplate beta scintillation counter (Microbeta Trilux, PerkinElmer, Madrid, Spain).

SNAP-CB1R = target: T2, SNAP-CB1R (Homo sapiens, UniProt P21554); assay: cell-based; assay type: binding
T2 construct: expressed in transfected cells; host or cells: HEK-293T cells, transient transfection (PEI), living cells

SNAP-CB2R = target: T3, SNAP-CB2R (Homo sapiens, UniProt P34972); assay: Tag-lite competition binding assay with CELT-335, living cells expressing SNAP-CB2R
T3 construct: host or cells: HEK-293 cells, transient transfection (lipofectamine 2000), living adherent cells

hCB2R = conditions: literature value ref 32; cited from earlier work
human CB2R = target: T4, human CB2R (Homo sapiens, UniProt P34972); assay: Competition radioligand binding assay, [3H]-CP55940, human CB2R
T4 construct: expressed in transfected cells
Description: CB2R competition binding experiments were carried out by employing cell membranes obtained from a stable HEK-hCB2 cell line. Cell membranes were prepared by washing the cells twice in PBS and scraped from the plate in PBS. Cell suspension was centrifuged at 1500× g for 3 min at 4 °C. Cell pellet was suspended in lysis buffer (15 mM Tris-HCl, 2 mM MgCl2, 0.3 mM EDTA, 1 mM EGTA, pH = 7.5), homogenized, and centrifuged at 40,000× g for 25 min at 4 °C. Pellet was suspended in lysis buffer and centrifuged at 40,000× g for 1 h at 4 °C. The membrane’s pellet was suspended in storage buffer (7.5 mM Tris-HCl, 12.5 mM MgCl2, 0.3 mM EDTA, 1 mM EGTA, 250 mM sucrose, pH = 7.5). The protein concentration of the cell membrane suspension was 4781 µg/mL.
Radioligand binding assays were performed in a polypropylene 96-well plate containing 30 μg of membranes, […] (101 Ci/mmol, 1 mCi/mL, Perkin Elmer NET1051250UC), and the compounds under study. Non-specific binding was determined in the presence of GW405833 10 μM (Sigma G1421). The reaction mixture (Vt: 250 μL/well) was incubated at 30 °C for 90 min, 200 μL was transferred to GF/C 96-well plate (Millipore, Madrid, Spain), pre-treated with 0.5% of PEI, and treated with binding buffer (50mM Tris-HCl, 5mM MgCl2, 2.5 mM EGTA, 0.1% BSA. pH: 7.4); afterward, it was filtered and washed four times with 250 μL wash buffer (50mM Tris-HCl, 5mM MgCl2, 2.5 mM EGTA, 1% BSA. pH: 7.4), before its measurement in a microplate beta scintillation counter (Microbeta Trilux, PerkinElmer, Madrid, Spain).

CB1 receptor = conditions: literature value ref 31; cited from earlier work
[1] = 100 nM CELT-335, test compound 0-10 μM, mean ± SEM, read-out: pKi CB1 Tag-Lite Binding (CELT-335) (converted)

T2 sequence (P21554 whole entry): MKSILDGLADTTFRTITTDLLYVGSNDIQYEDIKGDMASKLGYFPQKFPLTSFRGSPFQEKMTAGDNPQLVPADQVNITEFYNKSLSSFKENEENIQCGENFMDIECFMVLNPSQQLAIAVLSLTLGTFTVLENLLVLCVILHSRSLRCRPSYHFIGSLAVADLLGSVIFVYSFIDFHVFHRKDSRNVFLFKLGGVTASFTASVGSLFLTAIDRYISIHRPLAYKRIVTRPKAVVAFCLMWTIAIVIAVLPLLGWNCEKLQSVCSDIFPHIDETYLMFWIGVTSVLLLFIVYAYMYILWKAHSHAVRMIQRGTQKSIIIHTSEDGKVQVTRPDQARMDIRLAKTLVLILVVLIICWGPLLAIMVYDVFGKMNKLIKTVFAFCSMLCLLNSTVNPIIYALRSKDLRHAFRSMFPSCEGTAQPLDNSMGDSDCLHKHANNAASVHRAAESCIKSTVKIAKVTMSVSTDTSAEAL
T1 sequence (P21554 whole entry): as above
T4 sequence (P34972 whole entry): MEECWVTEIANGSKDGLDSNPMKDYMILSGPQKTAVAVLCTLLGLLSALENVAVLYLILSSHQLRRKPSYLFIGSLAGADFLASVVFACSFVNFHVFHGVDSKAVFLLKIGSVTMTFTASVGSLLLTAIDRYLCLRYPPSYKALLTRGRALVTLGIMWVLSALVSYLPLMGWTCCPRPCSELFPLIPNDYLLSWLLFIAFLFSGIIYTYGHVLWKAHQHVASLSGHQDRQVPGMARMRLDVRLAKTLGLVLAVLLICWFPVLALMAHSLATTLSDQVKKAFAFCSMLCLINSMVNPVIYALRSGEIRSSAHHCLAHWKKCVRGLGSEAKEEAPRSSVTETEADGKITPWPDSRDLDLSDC
T3 sequence (P34972 whole entry): as above

| Structure (SMILES) | Ki (human CB1R) [nM] | Ki (SNAP-CB1R) [nM] | pKi CB2 Tag-Lite Binding (CELT-335) (SNAP-CB2R) | pKi CB2 Radioligand Binding (hCB2R) | Ki (human CB2R) [nM] | Ki (SNAP-CB1R; [1]) [nM] | Ki (SNAP-CB2R) [nM] | Ki (human CB1R; displacement of specific [3H]-CP55940 binding, mean ± SEM, read-out: pKi CB1 Radioligand Binding (converted)) [nM] | Ki (human CB2R; displacement of specific [3H]-CP55940 binding, mean ± SEM, read-out: pKi CB2 Radioligand Binding (converted)) [nM] | pKi CB1 Radioligand Binding (CB1 receptor) |
| --- | --- | --- | --- | --- | --- | --- | --- | --- | --- | --- |
| CCCCCn1cc(C(=O)NC23CC4CC(CC(C4)C2)C3)c(=O)c2ccccc21 [Adamantyl-quinolone] | 49 | 79.4 | 8.29 ± 0.11 | 7.78 [32] | – | – | – | – | – | – |
| COC(=O)[C@@H](NC(=O)c1cn(Cc2ccc(F)cc2)c2ccccc12)C(C)C [AMB-FUBICA] | 47.9 | – | – | – | 20 | 117 | 21.9 | – | – | – |
| Cc1c(C(=O)NCc2cccnc2)nn(-c2ccc(Cl)cc2Cl)c1-c1ccc(Cl)cc1 [MJ15] | – | – | – | – | – | 36.3 | 324 | 63.1 | 692 | – |
| CC(C)C(NC(=O)c1cn(Cc2ccc(F)cc2)c2ccccc12)C(N)=O (stereo not drawn) [AB-FUBICA] | 3.6 | – | – | – | 28.8 | – | 36.3 | – | – | – |
| COC(=O)C(NC(=O)c1cn(CC2CCCCC2)c2ccccc12)C(C)(C)C (stereo not drawn) [MDMB-CHMICA] | – | – | – | – | – | 8.13 | 2.34 | – | – | 9.38 [31] |
